Assay: Pharmacokinetic study in rats: plasma 2C-B after IV/PO 2C-B or PO 2C-B prodrugs
[1] = prodrug oral 10 mg/kg, male SD rats, time 0.500 h, individual animals
[2] = prodrug oral 10 mg/kg, male SD rats, time 0.500 h, mean
[3] = prodrug oral 10 mg/kg, male SD rats, time 1.00 h, individual animals
[4] = prodrug oral 10 mg/kg, male SD rats, time 1.00 h, mean
[5] = prodrug oral 10 mg/kg, male SD rats, time 2.00 h, individual animals
[6] = prodrug oral 10 mg/kg, male SD rats, time 2.00 h, mean
[7] = prodrug oral 10 mg/kg, male SD rats, time 4.00 h, individual animals
[8] = prodrug oral 10 mg/kg, male SD rats, time 4.00 h, mean
[9] = prodrug oral 10 mg/kg, male SD rats, time 7.00 h, individual animals
[10] = prodrug oral 10 mg/kg, male SD rats, time 7.00 h, mean
[11] = prodrug oral 10 mg/kg, male SD rats, time 24.0 h, individual animals
[12] = prodrug oral 10 mg/kg, male SD rats, time 24.0 h, mean
[13] = oral dosing of 2C-B prodrug, rat, time 0.500 h, individual animal
[14] = oral dosing of 2C-B prodrug, rat, time 0.500 h, mean
[15] = oral dosing of 2C-B prodrug, rat, time 1.00 h, individual animal
[16] = oral dosing of 2C-B prodrug, rat, time 1.00 h, mean
[17] = oral dosing of 2C-B prodrug, rat, time 2.00 h, individual animal
[18] = oral dosing of 2C-B prodrug, rat, time 2.00 h, mean
[19] = oral dosing of 2C-B prodrug, rat, time 4.00 h, individual animal
[20] = oral dosing of 2C-B prodrug, rat, time 4.00 h, mean
[21] = oral dosing of 2C-B prodrug, rat, time 7.00 h, individual animal
[22] = oral dosing of 2C-B prodrug, rat, time 7.00 h, mean
[23] = oral dosing of 2C-B prodrug, rat, time 24.0 h, individual animal
[24] = oral dosing of 2C-B prodrug, rat, time 24.0 h, mean

| Compound | Plasma Concentrations of metabolite 2C-B Following Oral Dosing [1] | Plasma Concentrations of metabolite 2C-B Following Oral Dosing [2] | Plasma Concentrations of metabolite 2C-B Following Oral Dosing [3] | Plasma Concentrations of metabolite 2C-B Following Oral Dosing [4] | Plasma Concentrations of metabolite 2C-B Following Oral Dosing [5] | Plasma Concentrations of metabolite 2C-B Following Oral Dosing [6] | Plasma Concentrations of metabolite 2C-B Following Oral Dosing [7] | Plasma Concentrations of metabolite 2C-B Following Oral Dosing [8] | Plasma Concentrations of metabolite 2C-B Following Oral Dosing [9] | Plasma Concentrations of metabolite 2C-B Following Oral Dosing [10] | Plasma Concentrations of metabolite 2C-B Following Oral Dosing [11] | Plasma Concentrations of metabolite 2C-B Following Oral Dosing [12] | Plasma Concentrations of metabolite 2C-B Following Oral Dosing [13] | Plasma Concentrations of metabolite 2C-B Following Oral Dosing [14] | Plasma Concentrations of metabolite 2C-B Following Oral Dosing [15] | Plasma Concentrations of metabolite 2C-B Following Oral Dosing [16] | Plasma Concentrations of metabolite 2C-B Following Oral Dosing [17] | Plasma Concentrations of metabolite 2C-B Following Oral Dosing [18] | Plasma Concentrations of metabolite 2C-B Following Oral Dosing [19] | Plasma Concentrations of metabolite 2C-B Following Oral Dosing [20] | also measured |
| --- | --- | --- | --- | --- | --- | --- | --- | --- | --- | --- | --- | --- | --- | --- | --- | --- | --- | --- | --- | --- | --- |
| COc1cc(CCN(C(=O)OC(C)(C)C)C(=O)OC(C)(C)C)c(OC)cc1Br [Example 12, tert-butyl (4-bromo-2,5-dimethoxyphenethyl)(tert-butoxycarbonyl) carbamate] | BLQ (BLQ: Below Lower Limit of Quanification (0.5 ng/mL)) | BLQ (BLQ: Below Lower Limit of Quanification (0.5 ng/mL)) | BLQ (BLQ: Below Lower Limit of Quanification (0.5 ng/mL)) | BLQ (BLQ: Below Lower Limit of Quanification (0.5 ng/mL)) | BLQ (BLQ: Below Lower Limit of Quanification (0.5 ng/mL)) | BLQ (BLQ: Below Lower Limit of Quanification (0.5 ng/mL)) | BLQ (BLQ: Below Lower Limit of Quanification (0.5 ng/mL)) | BLQ (BLQ: Below Lower Limit of Quanification (0.5 ng/mL)) | BLQ (BLQ: Below Lower Limit of Quanification (0.5 ng/mL)) | BLQ (BLQ: Below Lower Limit of Quanification (0.5 ng/mL)) | BLQ (BLQ: Below Lower Limit of Quanification (0.5 ng/mL)) | BLQ (BLQ: Below Lower Limit of Quanification (0.5 ng/mL)) | – | – | – | – | – | – | – | – | – |
| COc1cc(CCN2C(=O)C(C)=C(C)C2=O)c(OC)cc1Br [Example 21-B, 1-(4-bromo-2,5-dimethoxyphenethyl)-3,4-dim ethyl-1H-pyrrole-2,5-dione] | BLQ (BLQ: Below Lower Limit of Quanification (0.5 ng/mL)) | BLQ (BLQ: Below Lower Limit of Quanification (0.5 ng/mL)) | BLQ (BLQ: Below Lower Limit of Quanification (0.5 ng/mL)) | BLQ (BLQ: Below Lower Limit of Quanification (0.5 ng/mL)) | BLQ (BLQ: Below Lower Limit of Quanification (0.5 ng/mL)) | BLQ (BLQ: Below Lower Limit of Quanification (0.5 ng/mL)) | BLQ (BLQ: Below Lower Limit of Quanification (0.5 ng/mL)) | BLQ (BLQ: Below Lower Limit of Quanification (0.5 ng/mL)) | BLQ (BLQ: Below Lower Limit of Quanification (0.5 ng/mL)) | BLQ (BLQ: Below Lower Limit of Quanification (0.5 ng/mL)) | BLQ (BLQ: Below Lower Limit of Quanification (0.5 ng/mL)) | BLQ (BLQ: Below Lower Limit of Quanification (0.5 ng/mL)) | – | – | – | – | – | – | – | – | – |
| COc1cc(CCN2C(=O)c3c(C)ccc(C)c3C2=O)c(OC)cc1Br [Example 34, 2-(4-bromo-2,5-dimethoxyphenethyl)-4,7-dimethylisoindoline-1,3-dione] | – | – | – | – | – | – | – | – | – | – | – | – | BLQ (BLQ: Below Lower Limit of Quanification (0.5 ng/mL)) | BLQ (BLQ: Below Lower Limit of Quanification (0.5 ng/mL)) | BLQ (BLQ: Below Lower Limit of Quanification (0.5 ng/mL)) | BLQ (BLQ: Below Lower Limit of Quanification (0.5 ng/mL)) | BLQ (BLQ: Below Lower Limit of Quanification (0.5 ng/mL)) | BLQ (BLQ: Below Lower Limit of Quanification (0.5 ng/mL)) | BLQ (BLQ: Below Lower Limit of Quanification (0.5 ng/mL)) | BLQ (BLQ: Below Lower Limit of Quanification (0.5 ng/mL)) | Plasma Concentrations of metabolite 2C-B Following Oral Dosing [21]: BLQ (BLQ: Below Lower Limit of Quanification (0.5 ng/mL)); Plasma Concentrations of metabolite 2C-B Following Oral Dosing [22]: BLQ (BLQ: Below Lower Limit of Quanification (0.5 ng/mL)); Plasma Concentrations of metabolite 2C-B Following Oral Dosing [23]: BLQ (BLQ: Below Lower Limit of Quanification (0.5 ng/mL)); Plasma Concentrations of metabolite 2C-B Following Oral Dosing [24]: BLQ (BLQ: Below Lower Limit of Quanification (0.5 ng/mL)) |
| CCOC(=O)C1=C(C(=O)NCCc2cc(OC)c(Br)cc2OC)CCC1 [Example 36, Ethyl 2-((4-bromo-2,5-dimethoxyphenethyl)carbamoyl)cyclopent-1-ene-1-carboxylate] | – | – | – | – | – | – | – | – | – | – | – | – | BLQ (BLQ: Below Lower Limit of Quanification (0.5 ng/mL)) | BLQ (BLQ: Below Lower Limit of Quanification (0.5 ng/mL)) | BLQ (BLQ: Below Lower Limit of Quanification (0.5 ng/mL)) | BLQ (BLQ: Below Lower Limit of Quanification (0.5 ng/mL)) | BLQ (BLQ: Below Lower Limit of Quanification (0.5 ng/mL)) | BLQ (BLQ: Below Lower Limit of Quanification (0.5 ng/mL)) | BLQ (BLQ: Below Lower Limit of Quanification (0.5 ng/mL)) | BLQ (BLQ: Below Lower Limit of Quanification (0.5 ng/mL)) | Plasma Concentrations of metabolite 2C-B Following Oral Dosing [21]: BLQ (BLQ: Below Lower Limit of Quanification (0.5 ng/mL)); Plasma Concentrations of metabolite 2C-B Following Oral Dosing [22]: BLQ (BLQ: Below Lower Limit of Quanification (0.5 ng/mL)); Plasma Concentrations of metabolite 2C-B Following Oral Dosing [23]: BLQ (BLQ: Below Lower Limit of Quanification (0.5 ng/mL)); Plasma Concentrations of metabolite 2C-B Following Oral Dosing [24]: BLQ (BLQ: Below Lower Limit of Quanification (0.5 ng/mL)) |
